This assay deals with Rhodopseudomonas palustris TIE-1 wild-type biofilms. The experiment in a line: μ-BEC current density measurement of extracellular electron uptake (EEU) by surface-attached biofilms treated with photosynthetic ETC inhibitors. Particulars: working electrode poised at +100 mV vs. SHE, inhibitor concentration not given. The class given is cell-based.
Where [1] appears, read: illuminated (phototrophic) conditions.

In the case of `N#CC(C#N)=NNc1cccc(Cl)c1` [CCCP, carbonyl cyanide m-chlorophenyl hydrazone], the Current density is, setting by setting: (dark conditions) −18.4±14.0 nA cm^−2; under setting [1], 21.2±9.13 nA cm^−2.
The matching figures for antimycin A: −3.46±1.80 nA cm^−2 and 12.46±1.34 nA cm^−2.

For the origin of these results see US20250360505A1, “MICRO-BIOELECTROCHEMICAL CELL DEVICES AND METHODS OF DETECTING ELECTRON FLOWS” (Washington University, priority 2019, published 2025).
